Assay results published in patent US12729177B2, “Small molecules promoting sympathetic nerve regeneration” (OREGON HEALTH & SCIENCE UNIVERSITY, priority 2020, dated 2026).

Tests used:
PTPα catalytic activity = details: read-out: IC50 against PTPα catalytic activity in vitro; cited from earlier work
TrkA-PTPσ interaction = TrkA-PTPσ interaction (Homo sapiens, UniProt Q13332); assay: Immunoprecipitation assay: TrkA-RFP pulldown of PTPσ in transfected HEK-293t cells; details: 1 uM; HEK-293 cells treated with CSPGs and NGF; normalized to vehicle
[1] = target: T1, PTPσ D1D2 catalytic domain (Homo sapiens, UniProt Q13332); details: for D1 phosphatase activity (pNPP): 1 μM HJ-02, orthovanadate 10 mM
T1 sequence (Q13332 1304-1948 limits assumed): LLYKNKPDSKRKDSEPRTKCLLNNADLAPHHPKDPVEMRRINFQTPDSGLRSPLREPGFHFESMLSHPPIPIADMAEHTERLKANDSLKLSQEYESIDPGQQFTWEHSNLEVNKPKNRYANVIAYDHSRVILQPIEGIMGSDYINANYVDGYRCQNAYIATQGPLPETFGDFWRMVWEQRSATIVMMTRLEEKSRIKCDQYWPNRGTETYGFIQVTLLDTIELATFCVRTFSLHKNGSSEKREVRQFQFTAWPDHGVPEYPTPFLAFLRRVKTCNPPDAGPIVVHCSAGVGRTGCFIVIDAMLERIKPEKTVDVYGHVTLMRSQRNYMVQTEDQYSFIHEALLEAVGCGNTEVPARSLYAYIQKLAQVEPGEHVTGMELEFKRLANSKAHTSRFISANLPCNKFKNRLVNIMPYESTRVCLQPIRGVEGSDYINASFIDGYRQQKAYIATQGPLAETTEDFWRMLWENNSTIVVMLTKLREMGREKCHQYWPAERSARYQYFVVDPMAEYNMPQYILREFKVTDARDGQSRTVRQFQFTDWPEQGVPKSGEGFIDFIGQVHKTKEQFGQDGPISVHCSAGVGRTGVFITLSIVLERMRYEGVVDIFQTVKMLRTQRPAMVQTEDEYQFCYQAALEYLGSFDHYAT

[2] = tested on: panel of other protein phosphatases; assay: Screen against a panel of other protein phosphatases; format: biochemical
[3] = tested on: sympathetic nerve density in the infarct; assay: Sympathetic reinnervation of the infarct after myocardial ischemia-reperfusion (TH+ fiber density); format: in vivo, mouse; details: mice, s.c. daily days 3-10 after MI; HJ-01, HJ-02 10 mg/kg, ISP 10 μmol; day 14
ISO-stimulated PVCs = assay: Isoproterenol-induced arrhythmias after MI, ECG telemetry; format: in vivo, mouse; details: MI mice, s.c. daily days 3-10; HJ-01, HJ-02 10 mg/kg, ISP 10 μmol; 10 μg isoproterenol, 14 days after MI
[4] = tested on: cardiac output and ejection fraction; assay: Echocardiography of cardiac function after MI; format: in vivo, mouse; details: MI mice, response to isoproterenol
infarct size = assay: Infarct size after myocardial ischemia-reperfusion; format: in vivo, mouse; details: MI mice, treatment beginning three days after reperfusion (days 3-10); infarct as percentage of LV
cardiac vasculature = assay: Vascular immunohistochemistry (α-SMA, CD31) after MI; format: in vivo, mouse; details: 14 days after MI; infarct, peri-infarct, remote myocardium
sympathetic axons = assay: Compartmentalized cultures: microfluidic chambers, axonal compartment coated with CSPGs; details: added to the axonal (distal) compartment for 3 hours
[5] = tested on: PTPσ inhibition of TrkB signaling (ERK1/2 phosphorylation); assay: TrkB stimulated ERK phosphorylation in TrkB-HEK-293t cells co-expressing full-length PTPσ; details: BDNF-induced
sympathetic neurons = assay: Sympathetic outgrowth assay: dissociated sympathetic neurons on laminin or laminin and CSPGs, live cell imaging; details: 10 ng/mL NGF, imaging over 30 hr

Chain of TrkA-PTPσ interaction (Q13332 30-1948): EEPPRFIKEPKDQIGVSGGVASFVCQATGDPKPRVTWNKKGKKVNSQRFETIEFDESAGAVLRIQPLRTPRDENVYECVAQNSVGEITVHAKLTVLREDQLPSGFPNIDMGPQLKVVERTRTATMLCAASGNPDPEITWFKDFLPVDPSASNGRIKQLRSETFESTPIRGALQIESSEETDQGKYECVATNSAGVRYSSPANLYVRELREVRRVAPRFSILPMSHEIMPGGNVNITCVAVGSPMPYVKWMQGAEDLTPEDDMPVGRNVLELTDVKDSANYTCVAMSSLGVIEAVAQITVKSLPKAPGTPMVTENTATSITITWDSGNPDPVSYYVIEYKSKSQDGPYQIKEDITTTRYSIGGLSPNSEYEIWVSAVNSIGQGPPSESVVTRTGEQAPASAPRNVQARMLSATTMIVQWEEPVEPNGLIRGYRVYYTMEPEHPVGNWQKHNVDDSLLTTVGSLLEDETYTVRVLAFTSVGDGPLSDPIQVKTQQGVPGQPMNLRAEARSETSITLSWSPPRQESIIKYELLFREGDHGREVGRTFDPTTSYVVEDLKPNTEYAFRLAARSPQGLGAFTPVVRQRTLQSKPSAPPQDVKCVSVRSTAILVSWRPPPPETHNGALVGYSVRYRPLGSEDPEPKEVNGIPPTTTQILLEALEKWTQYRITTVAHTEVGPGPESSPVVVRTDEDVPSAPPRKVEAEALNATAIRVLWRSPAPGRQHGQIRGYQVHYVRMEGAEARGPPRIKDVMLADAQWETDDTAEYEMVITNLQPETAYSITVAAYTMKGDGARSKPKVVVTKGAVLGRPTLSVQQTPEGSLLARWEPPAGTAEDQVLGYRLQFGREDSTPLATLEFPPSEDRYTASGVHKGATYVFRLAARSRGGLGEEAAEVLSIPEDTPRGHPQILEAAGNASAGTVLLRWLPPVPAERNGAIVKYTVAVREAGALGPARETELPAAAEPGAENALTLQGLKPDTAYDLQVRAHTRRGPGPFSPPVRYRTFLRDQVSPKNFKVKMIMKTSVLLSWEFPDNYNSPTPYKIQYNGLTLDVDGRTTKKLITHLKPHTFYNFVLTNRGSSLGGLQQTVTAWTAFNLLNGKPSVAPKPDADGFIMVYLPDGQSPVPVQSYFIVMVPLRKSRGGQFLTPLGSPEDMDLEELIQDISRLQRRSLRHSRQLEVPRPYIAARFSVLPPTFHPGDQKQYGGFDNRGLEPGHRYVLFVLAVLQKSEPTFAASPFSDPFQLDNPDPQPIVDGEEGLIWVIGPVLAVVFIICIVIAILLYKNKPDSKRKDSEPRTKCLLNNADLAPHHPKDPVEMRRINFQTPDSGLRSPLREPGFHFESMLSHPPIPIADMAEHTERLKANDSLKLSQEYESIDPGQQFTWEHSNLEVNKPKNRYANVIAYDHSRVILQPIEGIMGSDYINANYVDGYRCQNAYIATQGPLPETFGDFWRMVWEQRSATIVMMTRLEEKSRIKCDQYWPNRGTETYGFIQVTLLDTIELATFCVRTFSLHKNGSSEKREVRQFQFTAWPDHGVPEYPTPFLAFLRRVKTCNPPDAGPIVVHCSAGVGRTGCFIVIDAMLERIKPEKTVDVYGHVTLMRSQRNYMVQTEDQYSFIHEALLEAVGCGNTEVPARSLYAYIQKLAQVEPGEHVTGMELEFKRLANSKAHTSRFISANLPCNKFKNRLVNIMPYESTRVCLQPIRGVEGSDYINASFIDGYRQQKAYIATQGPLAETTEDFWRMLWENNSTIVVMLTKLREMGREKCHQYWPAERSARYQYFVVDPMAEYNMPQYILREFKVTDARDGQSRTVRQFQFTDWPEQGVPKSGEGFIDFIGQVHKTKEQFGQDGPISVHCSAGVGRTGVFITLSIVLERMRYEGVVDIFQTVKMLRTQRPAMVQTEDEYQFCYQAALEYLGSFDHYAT

Molecule | D1 phosphatase activity (pNPP) [1] | inhibition of other protein phosphatases in the screen [2] | nerve density within the infarct [3] | ISO-stimulated arrhythmias (PVCs) (ISO-stimulated PVCs) | beta adrenergic receptor supersensitivity [4] | infarct size (infarct size) | density of vasculature (α-SMA, CD31) (cardiac vasculature) | defasiculation of axon bundles growing over CSPGs (sympathetic axons) | rate of axon outgrowth over CSPGs (sympathetic axons) | concentration rescuing ERK1/2 phosphorylation [5] [nM] | concentration fully restoring sympathetic axon outgrowth over CSPGs (sympathetic neurons) [nM] | further results
CC1(C)Cc2c(O)c(C=O)c3c(c2C1)C(=O)OC(O)C3 (stereo not drawn) [Illudalic acid] | – | – | – | – | – | – | – | – | – | – | – | IC50 (PTPα catalytic activity): ~1 µM
CCC(=O)Nc1cc(OC)c(OCC2CCCCC2)cc1C(=O)O [HJ-03, 5-(cyclohexylmethoxy)-4-methoxy-2-propionamidobenzoic Acid] | – | – | – | – | – | – | – | – | – | – | – | amount of PTPRS co-immunoprecipitated with TrkA-RFP (TrkA-PTPσ interaction): had no effect
[Na+].[Na+].[Na+].[O]=[V]([O-])([O-])[O-] [orthovanadate, sodium-orthovanadate, reference compound] | negligible phosphatase activity | – | – | – | – | – | – | – | – | – | – | –
C=CC(=O)Nc1cc(OC)c(OCCCCCC)cc1C(=O)O [HJ-02, 2-acrylamido-5-(hexyloxy)-4-methoxybenzoic Acid] | did not inhibit D1 phosphatase activity | neither HJ-01 nor HJ-02 inhibited any of the protein phosphatases | restored nerve density within the infarct to the density in sham and uninjured peri-infarct myocardium | had arrhythmias similar to sham mice | prevented beta adrenergic receptor supersensitivity | significantly smaller infarcts compared to vehicle hearts | no difference in the density of vasculature between any treatment groups | stimulated the defasiculation of axon bundles | enhanced the rate of axon outgrowth | 10 | 30 | –
C=CC(=O)Nc1cc(OC)c(OCC2CCCCC2)cc1C(=O)O [HJ-01, 2-acrylamido-5-(cyclohexylmethoxy)-4-methoxybenzoic Acid] | – | neither HJ-01 nor HJ-02 inhibited any of the protein phosphatases | restored nerve density within the infarct to the density in sham and uninjured peri-infarct myocardium | had arrhythmias similar to sham mice | prevented beta adrenergic receptor supersensitivity | significantly smaller infarcts compared to vehicle hearts | no difference in the density of vasculature between any treatment groups | stimulated the defasiculation of axon bundles | enhanced the rate of axon outgrowth | 100 | 100 | catalytic activity of recombinant PTPσ ([1]; concluding statement, no concentration printed for HJ-01): do not inhibit the catalytic activity of recombinant PTPσ
chondroitinase ABC [reference compound] | – | – | – | – | – | – | – | stimulated the defasiculation of axon bundles | enhanced the rate of axon outgrowth | – | – | –
